Patent US8809368B2, “Compounds affecting gap junction activity” (Kansas State University Research Foundation, priority 2006, dated 2014)
Values after ≈ are worked out from the molar mass of the structure shown.

How the values were obtained:
T47D cells = assay: Cell morphology, T47D cells; format: cell-based, human; settings: varying concentrations, 24 hours
Experimental: Cell Morphology: T47D cells (1000 cells/ml) were seeded in a six-well plate for 24 hours. Next day, cells were dosed with varying concentrations of PQ1 for 24 hours. Cells were observed under a microscope before and after the experiment. No effect seen on the morphology of cells in the presence of PQ1.

[1] = tested on: MDA-MB-453 human breast cancer cells; assay: Soft agar colony growth, MDA-MB-453 cells; format: cell-based; settings: for effect on breast cancer cell colony growth: Table 2
Experimental: FIG. 3(A) MDA-MB-453 and (B) T47D human breast cancer cells were treated with 10 μM of various quinolines for 7 days. Base agar plates were prepared containing 0.8% agar and 0.4% agar in Ham's F12. Cells (5×10^4 cells/33 mm well) were suspended in 100 μl of Ham's F12 with 0.4% agar and plated. These plates were maintained at 37° C. for 7 days and examined for the presence of colonies. Individual colonies of 40 μm or greater were examined. […] However, PQ3 caused a 2.3-fold increase in colony growth in MDA-MB-453 cells and PQ2 caused a 2.6-fold increase in T47D colony growth compared to DMSO. FIGS. 7 and 8 show MDA-MB-453 and T47D colony growth for various concentrations of PQ1 and SA tested for 7 days. The procedures are generally as described above. The cell colony growth decreased using 10 and 100 nM PQ1 for both cell types. Colony Growth Assay: T47D human breast cancer cells were treated with PQ1. Base agar plates were prepared containing 0.8% agar and 0.4% agar in Ham's F12. Cells (5×10^4 cells/33 mm2 well) were suspended in 100 μl of Ham's F12 with 0.4% agar and plated. These plates were maintained at 37° C. for 7 days and examined for the presence of colonies. Individual colonies of 40 um or greater were examined.

Trypanosoma brucei = assay: Anti-trypanosomal activity, inhibition of T. brucei growth (ATP-bioluminescence luciferase assay); format: cell-based; settings: read-out: IC50 against Trypanosoma brucei
Experimental: The antiparasitic activities of exemplary compounds described here was studied using the anti-trypanosomal activity protocol described in: Rapp M, et al. J Med Chem 2006; 49:2096-102. […] FIG. 1 summarizes the compound inhibition of T. brucei growth. It is seen that compounds of the invention are useful in inhibiting T. brucei growth.
Culturing of Parasites. The bloodstream form of Trypanosoma brucei 427 strain was maintained under the standard cell culture conditions (37° C., 5% CO2). The parasites were grown in complete HMI-9 medium containing 10% FBS, 10% Serum Plus and 1× Penicillin/Streptomycin. (Angew. Chem. Int. Ed. Engl. 2003, 42, 5274-5293).
Luciferase Assay. Luciferase assay was used to measure ATP-bioluminescence in T. brucei cultured in 96-well plates at 37° C. for 48 hours. Parasites were diluted to 1.0×10^5 cells/mL in complete HMI-9 medium. One hundred microliters (100 μL) of the diluted parasites were aliquoted into sterile 96-well flat white opaque culture plates (Greiner). Each compound was serially diluted from 10 μM to 0.1 μM in DMSO and then mixed in the appropriate wells containing parasites. The treated parasites were then incubated for 48 hours at 37° C. with 5% CO2 before monitoring viability. To measure the viability of the parasites after treatment with each compound, the parasites were lysed in the wells by adding 100 μL of CellTiter-Glo™ (Promega). After lysis, the ATP bioluminescence of the 96-well plates was measured with a SpectraFluor Plus multidetection plate reader (Tecan).

ZR75 = assay: Gap junction intercellular communication, ZR75 cells; format: cell-based, human; settings: Table 1
HT29 = assay: Gap junction intercellular communication, HT29 colon cancer cells; format: cell-based; settings: Table 3
R28 cells = assay: Dye transfer/scrape loading gap junction assay in R28 cells; format: cell-based, rat; settings: 10 μM for 40 minutes
Experimental: To determine the effects of the compounds of the invention on gap junctions, […] R28 cells and lucifer yellow dye and rhodamine dextran were used to study gap junction. (Das, S.; Lauer, J.; Barnett, M.; Lin, D.; Akoev, V.; Battina, S.; Hua, D. H.; Takemoto, D. J. PKCγ phosphorylates connexin50 on serine-430. A presentation at 2006 ARVO Annual Meeting, Apr. 30-May 4, 2006, Fort Lauderdale, Fla.). […] The cells were treated with different compounds as shown @ 10 μM for 40 minutes. A mixture of lucifer yellow (LY) and rhodamine dextran (RD) was added to the cells at the center of the coverslip. Two cuts across the coverslip were made to form a transient tear in the plasma membranes of the cells to permit dye transfer through gap junctions. Cells were incubated with the dye for 20 minutes, then fixed and examined by fluorescent microscopy. For quantitative analysis the extent of dye transfer was estimated by counting the number of LY and RD labeled cells in the microscopic field and graphed. […] PQ3 is useful as a drug having reduced gap junction inhibitory activity. The gap junction activity of other compounds of the invention may be tested as described herein without the use of undue experimentation.
Gap junction activity assay. R28 cells were grown to 90% confluency on coverslips. They were treated with PQ1 at 10 μM for 40 min. A mixture of 1% each, in PBS, Lucifer yellow (LY) and Rhodamine Dextran (RD) (Molecular Probes, Eugene, Oreg.) were added to the cells at the center of the coverslip. Two cuts across the coverslip were made to form a transient tear in the plasma membranes of the cells to permit dye entry into cells. Cells were incubated with 2.5 μl of both of the dyes for 20 min, then fixed in 2.5% paraformaldehyde, washed in PBS and examined by fluorescent microscopy using a Nikon C1 confocal microscopy. For quantitation, the extent of dye transfer was calculated by counting the number of LY-labeled cells from the initial scrape with subtraction of RD-labeled cells, as a cell damage control, in the microscopic field. Four points per slide were photographed. The experiments were repeated six times, and data are means±SEM.

MCF-7 = assay: Gap junction intercellular communication, MCF-7 cells; format: cell-based, human; settings: Table 1

SMILES | cell morphology (T47D cells) | colony growth attenuation ([1]; 10 μM, 7 days, compared to control) | cell colony growth ([1]; 10 and 100 nM, 7 days) | effect on breast cancer cell colony growth [1] | IC50 (Trypanosoma brucei) [µg/mL] | effect on gap junction intercellular communication (ZR75) | effect on gap junction intercellular communication (HT29) | block of lucifer yellow dye transfer through gap junctions (R28 cells; compared to untreated control cells) | effect on gap junction intercellular communication (MCF-7) | inhibition at 10 µM (R28 cells; Rattus norvegicus, R28, 40 min, as compared with the control, read-out: inhibitory activity on gap junction dye transfer) [%]
COc1cc(NCCCN)c2nccc(C)c2c1Oc1cccc(C(F)(F)F)c1.O=C(O)CCC(=O)O [PQ1, 6-Methoxy-8-[(3-aminopropyl)amino]-4-methyl-5-(3-trifluoromethylphenyloxy) quinoline succinic acid] | No effect | 80-95% | decreased | Decrease | 0.34 | Decrease | No effect | hardly any passage of the dye | No effect | –
COc1cc(N)c2nccc(C)c2c1Oc1cccc(C(F)(F)F)c1 [PQ3, 8-Amino-6-methoxy-4-methyl-5-(3-trifluoromethylphenyloxy)quinoline] | – | – | – | Increase | 1.08 (≈ 3.11 µM) | No effect | Increase | – | Decrease | ~20
